Measured values: patent publication US20110236897A1, “NOVEL MARKERS FOR […] DISEASE CAUSED BY BRAIN INJURY AND USE THEREOF” (priority 2010, published 2011)
Entries after “also recorded” stand apart in the source; their conditions may differ.

System: cerebral cortex of F1 C57BL/6N mice
Assay: Microarray expression profiling of F1 cerebral cortex after prenatal exposure to MDMA
[1] = F1 female, prenatal MDMA 20 mg/kg/day vs vehicle
[2] = F1 male, prenatal MDMA 20 mg/kg/day vs vehicle
[3] = common to F1 females and males, cerebral cortex, compared with control group, hydrochloride

Which “differentially expressed genes after prenatal exposure to MDMA (female group)” value (F1 female cerebral cortex at 11 weeks, dams 20 mg/kg/day p.o. GD 6 to PND 21, vs vehicle, Welch's T-test P<0.05, 1.5 fold change cut-off) does the source give for `CNC(C)Cc1ccc2c(c1)OCO2` (racemic) [MDMA] here?
Its value is 1,784 genes.

What about the “genes under-expressed in the female cerebral cortex” value [1] of the same compound?
The value was 399 genes.

What about the “genes up-regulated (over-expressed) in the female cerebral cortex” value [1] of the same compound?
Its value is 1,385 genes.

What about the “differentially expressed genes after prenatal exposure to MDMA (male group)” value (F1 male cerebral cortex at 11 weeks, dams 20 mg/kg/day p.o. GD 6 to PND 21, vs vehicle, Welch's T-test P<0.05, 1.5 fold change cut-off) of the same compound?
The value was 804 genes.

And the “genes under-expressed in the male cerebral cortex” value [2]?
The value was 469 genes.

What about the “genes up-regulated in the male cerebral cortex” value [2] of the same compound?
Its value is 335 genes.

What about the “common genes selected from the differentially expressed genes of females and males” value (common to 1,784 genes of females and 804 genes of males) of the same compound?
Its value is 90 genes.

What about the “Expression change of the 1st to 36th genes of the 90 common genes” value [3] of the same compound?
The value was “reduced; also recorded: down-”.

And the “Expression change of the 37th to 90th genes of the 90 common genes” value [3]?
Its value is “up-”.

What about the “effect on transcriptomic configuration of the cerebral cortex among offspring” value (maternal ingestion during pregnancy and lactation, F1 generation, hydrochloride) of the same compound?
The value was “considerably affected; also recorded: this change was permanent”.
